Test results: ChEMBL document CHEMBL5252595, “A Quarter Century of Marine Biodiscovery in Algoa Bay, South Africa” (J Nat Prod, 2023)
pIC50: −log10 of the molar value. One block for each molecule: values may come before it.

How the values were obtained:
[1] = test system: MDA-MB-231; experiment: Anticancer activity against human MDA-MB-231 cells assessed as cell growth incubated for 24 hrs by MTT assay; format: functional, cell-based; details: MDA-MB-231, 24 h
[2] = Anticancer activity against human U-87 MG cells assessed as cell growth inhibition; format: functional, U-87MG ATCC; details: read-out: LC50 (the source's name)
[3] = test system: NCI-H460; experiment: Anticancer activity against human NCI-H460 cells assessed as cell growth incubated for 48 hrs by MTT assay; format: functional, cell-based; details: NCI-H460, 48 h
[4] = test system: HCT-116; experiment: Anticancer activity against human HCT-116 cells assessed as cell growth inhibition; format: functional; details: read-out: LC50 (the source's name)
[5] = test system: SNB-19; experiment: Anticancer activity against human SNB-19 cells assessed as cell growth inhibition; format: functional, cell-based
[6] = test system: OVCAR-3; experiment: Anticancer activity against human OVCAR-3 cells assessed as cell growth inhibition; format: functional, cell-based
[7] = test system: A549; experiment: Anticancer activity against human A549 cells assessed as cell growth inhibition; format: functional, cell-based
[8] = test system: LOX IMVI; experiment: Anticancer activity against human LOX IMVI cells assessed as cell growth inhibition; format: functional, cell-based
[9] = Anticancer activity against human WHCO1 cells assessed as cell growth incubated for 24 hrs by MTT assay; format: functional, cell-based; details: WHCO1, 24 h

- pIC50 [1]: 4.13
SMILES: O=C1Cc2ccc(Br)cc2N1

SMILES: CO[C@H]1[C@H](O[C@@H]2C[C@@H]3C/C=C/C(=O)O[C@H](CO)C[C@H](O)[C@@H]4C[C@H](C)[C@H](C/C=C\C=C\[C@H](C)C[C@H](C2)O3)O4)O[C@@H](C)[C@H](O)[C@H]1O
- CC50 [2]: 0.00038 µM
- pIC50 [3]: 7.92

- pIC50 [1]: 4.14
SMILES: Clc1c[nH]c2cc(Br)ccc12

SMILES: CC.CCCCCCCC(=O)OC[C@@H]1C[C@H](O)[C@@H]2C[C@H](C)[C@H](C/C=C\C=C\[C@H](C)C[C@@H]3C[C@H](O[C@@H]4O[C@@H](C)[C@H](O)[C@@H](O)[C@H]4OC)C[C@H](C/C=C/C(=O)O1)O3)O2
- CC50 [2]: 0.061 µM
- CC50 [4]: 0.054 µM

- pIC50 [6]: 4.52
- pIC50 [7]: 4.52
SMILES: CCCCCCCC/C=C/C=C/[C@@H](C)N
- pIC50 [5]: 4.52
- pIC50 [8]: 4.52

SMILES: C/C(=C\Cc1cc(O)c(C)cc1O)CC/C=C(\C)CC(=O)CC(C)C
- pIC50 [9]: 5.02

SMILES: CCCC(=O)O[C@@H]1C[C@H]2C[C@@H](O[C@@H]3O[C@@H](C)[C@@H](O)[C@@H](O)[C@H]3OC)C[C@@H](C[C@@H](C)/C=C/C=C\C[C@@H]3O[C@@H](C[C@@H]3C)[C@@H](O)C[C@H]3C[C@@]1(O)C(=O)O3)O2
- pIC50 [3]: 7.36

- pIC50 [1]: 3.93
SMILES: Brc1ccc2c(Br)c[nH]c2c1

SMILES: O=C1C[C@H]2S[C@H]3C[C@]2(C=C1Br)C1=C(N3)C(=O)c2[nH]cc3c2C1=NCC3 [DISCORHABDINE A]
- pIC50 [9]: 7.77
